A word on the IC50: it is the midpoint of a concentration-inhibition curve.

Structures can show the parent of a compound that is named as a salt.

Sequence of TDP-43 (Q13148 whole entry): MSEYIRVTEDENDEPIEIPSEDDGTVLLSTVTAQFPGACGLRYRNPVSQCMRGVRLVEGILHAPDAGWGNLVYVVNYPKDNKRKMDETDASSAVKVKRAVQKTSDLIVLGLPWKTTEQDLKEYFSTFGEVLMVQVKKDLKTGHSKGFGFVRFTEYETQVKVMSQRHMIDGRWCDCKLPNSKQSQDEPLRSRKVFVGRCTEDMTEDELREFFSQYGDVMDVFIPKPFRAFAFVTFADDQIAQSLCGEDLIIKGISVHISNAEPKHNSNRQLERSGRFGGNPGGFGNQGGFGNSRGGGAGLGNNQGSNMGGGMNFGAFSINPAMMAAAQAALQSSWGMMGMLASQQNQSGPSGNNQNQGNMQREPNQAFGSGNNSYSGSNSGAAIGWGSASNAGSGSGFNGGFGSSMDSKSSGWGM

The test concerns the target TDP-43 (Homo sapiens, UniProt Q13148). Description: TDP-43-DNA alpha-screen assay (bt-TAR-32 displacement). The class given is binding. The note with it: bt-TAR-32 0.125 nM, 15 ng/ml TDP-43. As to the method:
Alpha-screen assay: Displacement of bt-TG6 binding was measured using AlphaScreen technology as previously described (Cassel, J. A. et al., Journal of Biomolecular Screening, 2010, 15, 1099-1106; Cassel, J. A.; Reitz, A. B. et al. The effects of small molecule inhibitors of nucleic acid binding to TDP-43 on TDP-43 metabolism and function. Biochimie, 2012, 94, 1974-1981).
Test compounds were diluted in assay buffer (25 mM Tris [pH 7.4], 0.1% bovine serum albumin [BSA], 0.1% Triton X-100) at 4× the desired final concentration. Dilutions of test compound (50 to 0.02 μM in half-log dilutions with a no compound control well) were pre-incubated with TDP-43 (5 μl of 60 ng/mL) pre-bound to AlphaScreen® anti-GST acceptor beads (5 μl of 40 μg/mL) in 15 μl volume for 30 minutes at 23° C. with shaking. Assays were initiated by the addition of 5 μl bt-TAR-32 (5′-CTGCTTTTTGCCTGTACTGGGTCTCTGTGGTT-3′) 0.5 nM pre-bound to AlphaScreen® strepavidin donor beads (40 μg/mL). After incubation in the dark at 23° C. for 90 minutes with shaking, the AlphaScreen® signal was measured on a Synergy 2 plate reader (BioTek, Winooski, Vt.). IC50 values were determined from nonlinear regression fits of the data to a Sigmoidal dose response variable slope model in GraphPad Prism. Final assay conditions are 25 mM Tris [pH 7.4], 0.1% bovine serum albumin [BSA], 0.100 Triton X-100, 15 ng/ml TDP-43, 0.125 nM bTAR32, 10 ug/ml […].
As to `COc1ccc(-c2cc(NCCCNCCCNS(C)(=O)=O)c3ccccc3n2)cc1` [Example 66, N-(3-((3-((2-(4-Methoxyphenyl)quinolin-4-yl)amino)propyl)amino)propyl) methanesulfonamide hydrochloride], the IC50 worked out at 1410 nM.
The figure for `COc1ccc(-c2cc(NCCC3CCCCN3CCCN3C(=O)c4ccccc4C3=O)c3ccccc3n2)cc1` (stereo not shown) [Example 67, 2-(3-(2-(2-((2-(4-Methoxyphenyl)quinolin-4-yl)amino)ethyl)piperidin-1-yl)propyl) isoindoline-1,3-dione] is 290 nM.
The figure for `COc1ccc(-c2cc(NCCCN3CCN4CCCC4C3)c3ccccc3n2)cc1` (stereo not shown) [Example 68, N-(3-(Hexahydropyrrolo[1,2-a]pyrazin-2(1H)-yl)propyl)-2-(4-methoxyphenyl)quinolin-4-amine dihydrochloride] is 2160 nM; for `COc1ccc(-c2cc(NC3CCN(C4CCN(C)CC4)CC3)c3ccccc3n2)cc1` [Example 69, 2-(4-Methoxyphenyl)-N-(1′-methyl-[1,4′-bipiperidine]-4-yl)quinolin-4-amine] it is 470 nM.
The result for `COc1ccc(-c2cc(NCCCNC3CCC4CN(Cc5ccccc5)CC43)c3ccccc3n2)cc1` (stereo not shown) [Example 70, N^1-(2-Benzyloctahydrocyclopenta[c]pyrrol-4-yl)-N^3-(2-(4-methoxyphenyl)quinolin-4-yl)propane-1,3-diamine trihydrochloride] reads 170 nM; that for `COc1ccc(-c2cc(NCCCNCC3CCN(CC4CC4)CC3)c3ccccc3n2)cc1` [Example 71, N^1-((1-(Cyclopropylmethyl)piperidin-4-yl)methyl)-N^3-(2-(4-methoxyphenyl)quinolin-4-yl)propane-1,3-diamine trihydrochloride], 100 nM.
In the case of `COc1ccc(-c2cc(NCCCN3CCC(C(N)=O)CC3)c3ccccc3n2)cc1` [Example 72, 1-(3-((2-(4-Methoxyphenyl)quinolin-4-yl)amino)propyl)piperidine-4-carboxamide dihydrochloride], the IC50 came to 930 nM.
The result for `COc1ccc(-c2cc(NCCCN3CCN(C)CC3)c3ccccc3n2)cc1` [Example 73, 2-(4-Methoxyphenyl)-N-(3-(4-methylpiperazin-1-yl)propyl)quinolin-4-amine] reads 1710 nM.
The figure for `COc1ccc(-c2cc(NCCN3CCN(C)CC3)c3ccccc3n2)cc1` [Example 74, 2-(4-Methoxyphenyl)-N-(2-(4-methylpiperazin-1-yl)ethyl)quinolin-4-amine] is 1850 nM.
The result for `COc1ccc(-c2cc(NCCCN3CCC(O)CC3)c3ccccc3n2)cc1` [Example 75, 1-(3-((2-(4-Methoxyphenyl)quinolin-4-yl)amino)propyl)piperidin-4-ol] reads 590 nM; that for `COc1ccc(-c2cc(NCCCN3CCOCC3)c3ccccc3n2)cc1` [Example 76, 2-(4-Methoxyphenyl)-N-(3-morpholinopropyl)quinolin-4-amine], 6280 nM; that for `COc1ccc(-c2cc(NCCCN(C)CCCNC(=O)Cc3c(C)c4ccc(N)cc4oc3=O)c3ccccc3n2)cc1` [Example 77, 2-(7-Amino-4-methyl-2-oxo-2H-chromen-3-yl)-N-(3-((3-((2-(4-methoxyphenyl)quinolin-4-yl)amino)propyl)(methyl)amino)propyl)acetamide trihydrochloride], 250 nM.
As for `COc1ccc(-c2cc(NCCCN(C)CCCNS(=O)(=O)c3cccc4c(N(C)C)cccc34)c3ccccc3n2)cc1` [Example 78, 5-(dimethylamino)-N-{3-[(3-{[2-(4-methoxyphenyl)quinolin-4 yl]amino}propyl)(methyl)amino]propyl}naphthalene-1-sulfonamide], the IC50 was determined as 1260 nM.
The result for `COc1cc2nc(-c3ccc(N4CCNCC4)cc3)cc(N[C@H]3C[C@@H](N)C3)c2cc1OC` [Example 79] reads 20 nM; that for `COc1cc2nc(-c3ccc(N4CCNCC4)cc3)cc(N[C@H]3C[C@H](N)C3)c2cc1OC` [Example 80], 20 nM.
The figure for `COc1cc2nc(-c3ccc(N4CCNCC4)cc3)cc(N[C@H]3CC[C@H](N)CC3)c2cc1OC` [Example 81, (1R,4R)—N^1-(6,7-dimethoxy-2-(4-(piperazin-1-yl)phenyl)quinolin-4-yl)cyclohexane-1,4-diamine] is 30 nM.
Consider `COc1cc2nc(-c3ccc(N4CCNCC4)cc3)cc(NCCCN)c2cc1OC` [Example 82], for which the IC50 was found to be 30 nM.
The result for `N[C@H]1C[C@@H](Nc2cc(-c3ccc(N4CCNCC4)cc3)nc3ccccc23)C1` [Example 83] reads 30 nM.
`NCCCNc1cc(-c2ccc(-n3cc4c(n3)CNC4)cc2)nc2ccccc12` [Example 84, N^1-(2-(4-(5,6-dihydropyrrolo[3,4-c]pyrazol-2(4H)-yl)phenyl)quinolin-4-yl)propane-1,3-diamine]: the half-maximal inhibitory concentration (IC50) stood at 40 nM.
With `COc1cc2nc(-c3ccc(N4CCNCC4)cc3)cc(N[C@H]3CC[C@@H](N)CC3)c2cc1OC` [Example 85], the IC50 came out at 40 nM.
The result for `NCCCNc1cc(-c2ccc(N3CCNCC3)cc2)nc2ccccc12` [Example 86] reads 50 nM.
The result for `COc1cc2nc(-c3ccc(N4CCNCC4)cc3)cc(NCCCN(C)C)c2cc1OC` [Example 87, N-(3-(dimethylamino)propyl)-6,7-dimethoxy-2-(4-(piperazin-1-yl)phenyl)quinolin-4-amine] reads 50 nM.
Take `CN(CCCN)CCCNc1cc(-c2cccc(N3CCNCC3)c2)nc2ccccc12` [Example 88]: the half-inhibitory concentration (IC50) was determined as 60 nM.
The figure for `COc1ccc(-c2cc(NC3CCC(N)CC3)c3cc(OC)c(OC)cc3n2)cc1` (stereo not shown) [Example 89] is 80 nM; for `NC1CCC(Nc2cc(-c3ccc(N4CCNCC4)cc3)nc3ccccc23)CC1` (stereo not shown) [Example 90] it is 80 nM.
The result for `CC(C)C(N)C(=O)N1CCN(c2ccc(-c3cc(NCCCN(C)C)c4ccccc4n3)cc2)CC1` (stereo not shown) [Example 91, 2-amino-1-(4-(4-(4-((3-(dimethylamino)propyl)amino)quinolin-2-yl)phenyl)piperazin-1-yl)-3-methylbutan-1-one] reads 90 nM; that for `CC(N)C(=O)N1CCN(c2ccc(-c3cc(NCCCN(C)C)c4ccccc4n3)cc2)CC1` (stereo not shown) [Example 92], 90 nM.
The figure for `CN1CCC(n2cc(-c3cc(NCCCN)c4ccccc4n3)cn2)CC1` [Example 93] is 90 nM; for `COc1ccc(-c2cc(NCCCN(C)CCCN)c3cc(OC)c(OC)cc3n2)cc1` [Example 94] it is 100 nM.
Turning to `NCCCNc1cc(-c2ccc(C3CCNCC3)cc2)nc2ccccc12` [Example 95], the 50% inhibitory concentration (IC50) was 110 nM.
The result for `NCCCNc1cc(-c2cnn(C3CCNCC3)c2)nc2ccccc12` [Example 96] reads 120 nM.
The figure for `COc1ccc(-c2cc(N[C@H]3C[C@H](N)C3)c3cc(OC)c(OC)cc3n2)cc1` [Example 97] is 130 nM; for `CN(C)CCCNc1cc(-c2cccc(N3CCNCC3)c2)nc2ccccc12` [Example 98] it is 140 nM.
The result for `CN(C)CCCNc1cc(-c2ccc(N3CCNCC3)cc2)nc2ccccc12` [Example 99, N^1,N^1-dimethyl-N3-(2-(4-(piperazin-1-yl)phenyl)quinolin-4-yl)propane-1,3-diamine] reads 150 nM; that for `NCCCNc1cc(-c2cnn(CCN3CCCC3)c2)nc2ccccc12` [Example 100], 160 nM; that for `COc1ccc(-c2cc(N[C@H]3CC[C@H](N)CC3)c3cc(OC)c(OC)cc3n2)cc1` [Example 101], 170 nM.
In the case of `COc1ccc(-c2cc(NC3CCN(C4CCC(N)CC4)CC3)c3ccccc3n2)cc1` (stereo not shown) [Example 102], the 50% inhibitory concentration (IC50) is 180 nM.
The figure for `CN(C)CCCNc1cc(-c2ccc(N3CCNCC3)cc2)nc2ccc(F)cc12` [Example 103, N-(3-(dimethylamino)propyl)-6-fluoro-2-(4-(piperazin-1-yl)phenyl)quinolin-4-amine] is 220 nM; for `COc1ccc(-c2cc(NC3CCN(CCCN)CC3)c3ccccc3n2)cc1` [Example 104] it is 220 nM; for `COc1ccc(-c2cc(N[C@H]3CC[C@@H](N)CC3)c3cc(OC)c(OC)cc3n2)cc1` [Example 105] it is 230 nM.
The figure for `CC(C)C(N)C(=O)NC(C(=O)NC(C(=O)N1CCN(c2ccc(-c3cc(NCCCN(C)C)c4ccccc4n3)cc2)CC1)C(C)C)C(C)C` (stereo not shown) [Example 106] is 240 nM; for `CN(C)CCCNc1cc(-c2cnn(C3CCN(C)CC3)c2)nc2ccccc12` [Example 107] it is 260 nM; for `COc1ccc(-c2cc(NCCCN(C)C)c3cc(OC)c(OC)cc3n2)cc1` [Example 108] it is 270 nM.
The result for `COc1ccc(-c2cc(NCCCN)c3cc(OC)c(OC)cc3n2)cc1` [Example 109] reads 290 nM.
For `CN(C)CCCNc1cc(-c2ccc(N3CCN(C)CC3)cc2)nc2ccccc12` [Example 110], the IC50 came to 310 nM.
Regarding `CC(C)C(N)C(=O)NC(C(=O)N1CCN(c2ccc(-c3cc(NCCCN(C)C)c4ccccc4n3)cc2)CC1)C(C)C` (stereo not shown) [Example 111], the IC50 is 420 nM.

The values above are taken from patent publication US20220388962A1 (Biohaven Therapeutics Ltd., priority 2019, published 2022).
